Experiments:
Assay type in all cases: cell-based
PDCD4 = test: Western blot of PDCD4
Description: RiboTAC 7 was then assessed for its ability to affect protein levels by deactivation of a miR-21-mediated cancer circuit, i.e., derepression of PDCD4. […] Proteome-wide analysis was also completed to study the effects of 7 and a locked nucleic acid (LNA) oligonucleotide that targets miR-21-5p on the proteome. The concentrations tested of both provided similar activity (5 nM of 7 and 100 nM of the LNA), as assessed by their effect on PDCD4 levels, ˜40% enhancement. […] Neither modality affected proteins that are direct targets of miRNA let-7b-5p, further supporting that RiboTAC 7 is selectively deactivating a miR-21-mediated cancer circuit in cells (FIG. 11C-11D).
Quantification of Protein Levels by Western Blotting. MDA-MB-231 cells were treated as described in “Cell Culture.” After treatment, the medium was removed, and the cells were washed with 1× Dulbecco's phosphate-buffered saline (DPBS). Total protein was extracted using Mammalian Protein Extraction Reagent (M-PER, Thermo Scientific) according to the manufacturer's protocol. Protein concentration was measured using a Pierce Micro BCA Protein Assay kit (Fisher Scientific). […]
Western blots were quantified using ImageJ (National Institutes of Health).^12 Protein expression was normalized to […] abundance. […]

mature miR-21 = test: RT-qPCR of mature miR-21 in CRISPR-Control sgRNA MDA-MB-231 cells; conditions: 5 μM, 48 h treatment, RNase L expressed
Description: (§1) Two CRISPR-modified MDA-MB-231 cell lines with either a scrambled control guide RNA (“Control sgRNA”; RNase L is expressed) or with an RNase L-targeting guide RNA (“RNase L-Targeting sgRNA”; RNase L protein abundance is knocked down) were used to complete these studies.
MDA-MB-231 cells were treated with compound (0.1% DMSO final concentration) for 24 h, followed by removal of the compound-containing medium and redosing in growth medium for an additional 24 h (total treatment period of 48 h), with the exception of invasion assays in which the cells were treated overnight. For the time-course experiment, MDA-MB-231 cells were treated for the indicated lengths of time. MCF-10A cells, also used in invasion assays, were treated with compound overnight (0.1% DMSO final concentration).
RNA Isolation and Quantitative Real-Time Polymerase Chain Reaction (RT-qPCR). MDAMB-231 cells were cultured as described in “Cell Culture.” After compound treatment, total RNA was extracted using a Quick-RNA Miniprep Kit (Zymo) per the manufacturer's instructions. […] RT-qPCR was performed on a QuantStudio5™ Real-Time PCR Instrument (Applied Biosystems) using Power SYBR Green Master Mix (Applied Biosystems), and the resulting data were analyzed using the ΔΔCt method.

[1] = test system: phosphorylation of extracellular signal-regulated kinase (ERK); test: Western blot of pERK versus ERK (RTK signaling); conditions: CRISPR-Control sgRNA MDA-MB-231 cells
Description: Quantification of Protein Levels by Western Blotting. MDA-MB-231 cells were treated as described in “Cell Culture.” After treatment, the medium was removed, and the cells were washed with 1× Dulbecco's phosphate-buffered saline (DPBS). Total protein was extracted using Mammalian Protein Extraction Reagent (M-PER, Thermo Scientific) according to the manufacturer's protocol. Protein concentration was measured using a Pierce Micro BCA Protein Assay kit (Fisher Scientific). Approximately 20 μg total protein was loaded onto a Tris-glycine gel with a 5% polyacrylamide stacking layer and a 10% polyacrylamide resolving layer. The gel was run at 140 V for ˜1.5 h in 1× Running Buffer (25 mM Tris base, pH 8.3, 190 mM glycine, and 0.1% (w/v) SDS). After electrophoresis, the protein was transferred to a PVDF membrane using 1× Transfer Buffer (25 mM Tris base, pH 8.3, 190 mM glycine, and 20% (v/v) methanol). The membrane was then washed with 1×TBST (Tris-buffered saline with 0.1% (v/v) Tween 20) and blocked in a solution of 5% (w/v) milk in 1×TBST for 30 min with shaking at room temperature. The membrane was then incubated overnight at 4° C. in a solution of primary antibody diluted in 1×TBST containing 5% (w/v) milk. […]

mature and pre-miR-21 = test: RT-qPCR in RNase L-Targeting sgRNA (knock-down) MDA-MB-231 cells; conditions: RNase L knocked down by CRISPR
From the text: as §1
Generation of the RNase L Knockdown MDA-MB-231 Cell Line. RNase L knockdown and control MDA-MB-231 cell lines were generated by CRISPR as previously described.^1 Briefly, lentiviral constructs containing Cas9 and gRNAs against RNASEL or a negative control were purchased from Transomic Technologies, Inc. [catalog #TEVH-1249025-pCLIP-ALL-hCMVPuro (KD+) and TELA1015 (KD−)] and packaged by transfecting HEK293T cells (ATCC, catalog #CRL-11268) using Lipofectamine 2000 transfection reagent (Invitrogen; catalog #11668500) and Cellecta packaging mix (Cellecta, catalog #CPCP-K2A) in Opti-MEM (Gibco, catalog #31985070). Virus supernatants were harvested 72 h post-transfection and filtered through a 0.45 μm PES filter (mdi Membrane Technologies Inc., catalog #SYPL0602MNXX204). […]
RNA Isolation and Quantitative Real-Time Polymerase Chain Reaction (RT-qPCR). […] RT-qPCR was performed on a QuantStudio5™ Real-Time PCR Instrument (Applied Biosystems) using Power SYBR Green Master Mix (Applied Biosystems), and the resulting data were analyzed using the ΔΔCt method.

CNC(=O)[C@H](c1ccccc1)N(C)Cc1ccc(-c2cccc(-c3sccc3NC(=O)CCOCCOCCOCCC(=O)NCCN3CCN(c4ccc5nc(-c6c(N)c7c(F)cccc7[nH]c6=O)[nH]c5c4)CC3)c2)cc1 [RiboTAC 7, (S)—N-(2-(4-(2-(4-amino-5-fluoro-2-oxo-1,2-dihydroquinolin-3-yl)-1H-benzo[d]imidazol-6-yl)piperazin-1-yl)ethyl)-3-(2-(2-(3-((2-(4′-((methyl(2-(methylamino)-2-oxo-1-phenylethyl)amino)methyl)-[1,1′-biphenyl]-3-yl)thiophen-3-yl)amino)-3-oxopropoxy)ethoxy)ethoxy)propanamide]
enhancement of PDCD4 levels (PDCD4; 5 nM of 7 and 100 nM of the LNA as printed): ~40%
increase of PDCD4 protein levels (PDCD4; 5 μM, CRISPR-Control sgRNA MDA-MB-231 cells): ~40%
reduction of mature miR-21 abundance (mature miR-21): ~40%
effect on the levels of ERK or pERK [1]: no effect
effect on mature and pre-miR-21 levels (mature and pre-miR-21): inactive

From patent publication US20260167614A1, “IDENTIFICATION OF SMALL MOLECULES THAT RECRUIT AND ACTIVATE RNASE L” (UNIVERSITY OF FLORIDA RESEARCH FOUNDATION, INCORPORATED, priority 2022, published 2026)
